What was measured:
[1] = species: Rattus norvegicus; experiment: Activity against BETA/R in the Eurofins Panlabs screen (BI) by Radioactive Assay; conditions: Compound concentration 10.0 uM
[2] = target: Endothelin receptor type B (Rattus norvegicus) (UniProt P21451); experiment: Activity against ETB/R in the Eurofins Panlabs screen (BI) by Radioactive Assay; conditions: Compound concentration 10.0 uM
[3] = target: Platelet-activating factor receptor (Oryctolagus cuniculus) (UniProt G1TEI7); experiment: Activity against PAF/RB in the Eurofins Panlabs screen (BI) by Radioactive Assay; conditions: Compound concentration 10.0 uM
[4] = target: Sodium-dependent serotonin transporter (Homo sapiens) (UniProt P31645); experiment: 5-HT transporter Eurofins-Cerep binding assay; parameters: ligand concentration 2 nM; conditions: Compound concentration 10.0 uM
[5] = species: Homo sapiens; experiment: Agonist activity in the Eurofins Cerep SafetyScreen44 (BI) against N_NEURO_A4B2 by Radioligand Binding (Cerep_3029); format: protein-complex assay; conditions: Compound concentration 10.0 uM
[6] = target: Histamine H2 receptor (Homo sapiens) (UniProt P25021); experiment: H2 Eurofins-Cerep binding assay; parameters: ligand concentration 0.075 nM; conditions: Compound concentration 10.0 uM
[7] = target: Beta-2 adrenergic receptor (Rattus norvegicus) (UniProt P10608); experiment: Activity against BETA2/R in the Eurofins Panlabs screen (BI) by Radioactive Assay; conditions: Compound concentration 10.0 uM
Sequence of Beta-2 adrenergic receptor (Rattus norvegicus) (P10608 whole entry, looked up): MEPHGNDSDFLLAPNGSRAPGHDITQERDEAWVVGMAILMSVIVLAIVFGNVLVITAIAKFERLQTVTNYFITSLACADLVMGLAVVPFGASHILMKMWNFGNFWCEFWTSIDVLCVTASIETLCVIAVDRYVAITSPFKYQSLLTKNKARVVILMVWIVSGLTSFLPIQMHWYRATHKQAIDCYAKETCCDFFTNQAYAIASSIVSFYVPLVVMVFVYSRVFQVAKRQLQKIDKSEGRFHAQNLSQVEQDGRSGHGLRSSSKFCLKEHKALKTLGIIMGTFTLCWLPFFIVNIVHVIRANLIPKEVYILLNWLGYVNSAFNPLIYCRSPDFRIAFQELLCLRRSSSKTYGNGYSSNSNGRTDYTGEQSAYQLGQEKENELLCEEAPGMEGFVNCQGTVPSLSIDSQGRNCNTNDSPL

[8] = target: Sodium-dependent dopamine transporter (Homo sapiens) (UniProt Q01959); experiment: dopamine transporter Eurofins-Cerep binding assay; conditions: Compound concentration 10.0 uM
[9] = target: Kappa-type opioid receptor (Cavia porcellus) (UniProt P41144); experiment: Activity against KAPPA/GP in the Eurofins Panlabs screen (BI) by Radioactive Assay; conditions: Compound concentration 10.0 uM
[10] = target: Adenosine receptor A1 (Rattus norvegicus) (UniProt P25099); experiment: Activity against A1/R in the Eurofins Panlabs screen (BI) by Radioactive Assay; conditions: Compound concentration 10.0 uM
Sequence of Adenosine receptor A1 (Rattus norvegicus) (P25099 whole entry): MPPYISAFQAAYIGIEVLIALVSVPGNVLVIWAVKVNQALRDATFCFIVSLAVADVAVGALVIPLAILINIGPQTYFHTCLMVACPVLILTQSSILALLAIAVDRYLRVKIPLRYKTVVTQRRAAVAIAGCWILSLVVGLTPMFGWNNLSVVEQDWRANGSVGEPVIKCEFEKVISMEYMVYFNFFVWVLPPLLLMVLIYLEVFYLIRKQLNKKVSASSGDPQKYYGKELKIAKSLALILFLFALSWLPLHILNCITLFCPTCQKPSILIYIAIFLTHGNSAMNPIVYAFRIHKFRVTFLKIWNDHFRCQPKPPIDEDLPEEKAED

[11] = target: 5-hydroxytryptamine receptor 1A (Homo sapiens) (UniProt P08908); experiment: 5-HT1A Eurofins-Cerep binding assay; parameters: ligand concentration 0.5 nM; conditions: Compound concentration 10.0 uM
[12] = target: Sodium-dependent noradrenaline transporter (Homo sapiens) (UniProt P23975); experiment: norepinephrine transporter Eurofins-Cerep binding assay; parameters: ligand concentration 1 nM; conditions: Compound concentration 10.0 uM
[13] = target: D(2) dopamine receptor (Homo sapiens) (UniProt P14416); experiment: Activity against D2HSPIP in the Eurofins Panlabs screen (BI); conditions: Compound concentration 10.0 uM
[14] = target: D(1A) dopamine receptor (Homo sapiens) (UniProt P21728); experiment: D1 Eurofins-Cerep binding assay; parameters: ligand concentration 0.3 nM; conditions: Compound concentration 10.0 uM
[15] = target: Kappa-type opioid receptor (Homo sapiens) (UniProt P41145); experiment: kappa (KOP) Eurofins-Cerep binding assay; conditions: Compound concentration 10.0 uM
[16] = target: Cysteinyl leukotriene receptor 1 (Cavia porcellus) (UniProt Q2NNR5); experiment: Activity against LTD4/GP in the Eurofins Panlabs screen (BI) by Radioactive Assay; conditions: Compound concentration 10.0 uM
[17] = target: Estrogen receptor (Bos taurus) (UniProt P49884); experiment: Activity against ESTROGEN/BO in the Eurofins Panlabs screen (BI) by Radioactive Assay; conditions: Compound concentration 10.0 uM
[18] = target: Delta-type opioid receptor (Homo sapiens) (UniProt P41143); experiment: delta (DOP) Eurofins-Cerep binding assay; parameters: ligand concentration 0.5 nM; conditions: Compound concentration 10.0 uM
[19] = target: Glutamate NMDA receptor (Rattus norvegicus) (UniProt P35439+Q00959+Q00960+Q00961+Q62645+Q8VHN2+Q9R1M7); experiment: Agonist activity in the Eurofins Panlabs screen (BI) against NMDAAGSI/R by Radioactive Assay; format: protein-complex assay; conditions: Compound concentration 10.0 uM
[20] = target: Histamine H1 receptor (Cavia porcellus) (UniProt P31389); experiment: Activity against H1/CENT/GP in the Eurofins Panlabs screen (BI) by Radioactive Assay; conditions: Compound concentration 10.0 uM
[21] = target: Serotonin 1 (5-HT1) receptor (Rattus norvegicus) (UniProt P28564+P30940+P19327+P28565); experiment: Activity against 5HT1/R in the Eurofins Panlabs screen (BI) by Radioactive Assay; format: protein assay; conditions: Compound concentration 10.0 uM
[22] = target: 3-hydroxy-3-methylglutaryl-coenzyme A reductase (Rattus norvegicus) (UniProt P51639); experiment: Inhibitor of HMGCOARED in the Eurofins Panlabs screen (BI) by Radioactive Assay; conditions: Compound concentration 30.0 uM
[23] = target: Cholecystokinin receptor type A (Homo sapiens) (UniProt P32238); experiment: CCK1 (CCKA) Eurofins-Cerep binding assay; parameters: ligand concentration 0.08 nM; conditions: Compound concentration 10.0 uM
[24] = target: T1, Neuropeptide Y receptor type 2 (Homo sapiens, UniProt P49146); experiment: Radioligand binding assay (NPY2R, BHK); format: cell-based, BHK-21
T1 sequence (P49146 whole entry): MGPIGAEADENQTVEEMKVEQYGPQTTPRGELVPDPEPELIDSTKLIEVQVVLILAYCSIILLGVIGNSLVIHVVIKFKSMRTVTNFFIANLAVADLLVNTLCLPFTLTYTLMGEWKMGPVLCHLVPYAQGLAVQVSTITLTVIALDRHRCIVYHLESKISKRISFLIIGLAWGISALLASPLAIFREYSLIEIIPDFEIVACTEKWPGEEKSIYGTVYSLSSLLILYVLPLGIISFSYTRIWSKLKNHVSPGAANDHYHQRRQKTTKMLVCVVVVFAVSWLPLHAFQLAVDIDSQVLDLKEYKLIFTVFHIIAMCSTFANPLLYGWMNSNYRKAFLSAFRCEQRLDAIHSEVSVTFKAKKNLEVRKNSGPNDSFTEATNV

[25] = target: Polyunsaturated fatty acid lipoxygenase ALOX15 (Oryctolagus cuniculus) (UniProt P12530); experiment: Inhibitor of 15LO in the Eurofins Panlabs screen (BI) by absorption of electromagnetic radiation; conditions: Compound concentration 30.0 uM
[26] = target: Carbonic anhydrase 6 (Homo sapiens) (UniProt P23280); experiment: Inhibitor of CANHYDRASE in the Eurofins Panlabs screen (BI) by absorption of electromagnetic radiation; conditions: Compound concentration 10.0 uM
[27] = target: 5-hydroxytryptamine receptor 1B (Homo sapiens) (UniProt P28222); experiment: 5-HT1B Eurofins-Cerep binding assay; parameters: ligand concentration 1 nM; conditions: Compound concentration 10.0 uM
Sequence of 5-hydroxytryptamine receptor 1B (Homo sapiens) (P28222 whole entry): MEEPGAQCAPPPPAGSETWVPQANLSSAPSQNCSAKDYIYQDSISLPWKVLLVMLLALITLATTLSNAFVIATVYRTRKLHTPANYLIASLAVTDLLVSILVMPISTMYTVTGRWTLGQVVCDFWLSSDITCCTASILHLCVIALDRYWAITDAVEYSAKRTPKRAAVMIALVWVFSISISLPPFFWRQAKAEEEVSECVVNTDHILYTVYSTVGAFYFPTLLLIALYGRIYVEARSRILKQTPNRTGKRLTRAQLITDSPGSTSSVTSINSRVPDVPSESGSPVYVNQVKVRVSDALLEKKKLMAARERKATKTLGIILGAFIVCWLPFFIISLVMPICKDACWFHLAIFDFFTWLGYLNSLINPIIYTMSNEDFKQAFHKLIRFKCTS

[28] = target: Adenosine receptor A2a (Homo sapiens) (UniProt P29274); experiment: A2A Eurofins-Cerep binding assay; parameters: ligand concentration 6 nM; conditions: Compound concentration 10.0 uM
Sequence of Adenosine receptor A2a (Homo sapiens) (P29274 whole entry): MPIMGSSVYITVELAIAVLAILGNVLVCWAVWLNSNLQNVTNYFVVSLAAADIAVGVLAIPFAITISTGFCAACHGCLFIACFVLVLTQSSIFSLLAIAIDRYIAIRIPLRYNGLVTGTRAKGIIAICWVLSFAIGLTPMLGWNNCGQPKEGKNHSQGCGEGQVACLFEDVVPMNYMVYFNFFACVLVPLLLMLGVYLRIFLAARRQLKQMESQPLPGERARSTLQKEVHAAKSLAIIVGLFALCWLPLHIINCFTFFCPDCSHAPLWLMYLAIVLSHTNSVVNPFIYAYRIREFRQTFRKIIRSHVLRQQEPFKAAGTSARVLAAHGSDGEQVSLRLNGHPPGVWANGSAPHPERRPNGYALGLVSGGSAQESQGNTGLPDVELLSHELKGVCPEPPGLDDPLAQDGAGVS

[29] = target: Calcitonin-gene-related peptide receptor; CALCRL/RAMP1 (Rattus norvegicus) (UniProt Q63118+Q9JJ74); experiment: Activity against CGRP/R in the Eurofins Panlabs screen (BI) by Radioactive Assay; format: protein-complex assay; conditions: Compound concentration 10.0 uM
[30] = target: C-X-C chemokine receptor type 2 (Homo sapiens) (UniProt P25025); experiment: Activity against IL-8/H in the Eurofins Panlabs screen (BI) by Radioactive Assay; conditions: Compound concentration 10.0 uM
Sequence of C-X-C chemokine receptor type 2 (Homo sapiens) (P25025 whole entry): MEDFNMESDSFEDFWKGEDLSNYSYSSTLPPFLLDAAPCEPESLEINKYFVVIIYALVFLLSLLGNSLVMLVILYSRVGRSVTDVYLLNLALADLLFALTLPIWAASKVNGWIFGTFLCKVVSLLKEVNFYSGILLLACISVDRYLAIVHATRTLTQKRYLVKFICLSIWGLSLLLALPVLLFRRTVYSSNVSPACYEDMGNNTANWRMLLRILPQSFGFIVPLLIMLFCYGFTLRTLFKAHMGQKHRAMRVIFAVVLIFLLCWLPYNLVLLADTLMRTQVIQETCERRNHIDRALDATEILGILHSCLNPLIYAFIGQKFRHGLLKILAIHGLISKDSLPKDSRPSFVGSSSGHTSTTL

[31] = target: Muscarinic acetylcholine receptor M1 (Homo sapiens) (UniProt P11229); experiment: M1 Eurofins-Cerep binding assay; parameters: ligand concentration 2 nM; conditions: Compound concentration 10.0 uM
Sequence of Muscarinic acetylcholine receptor M1 (Homo sapiens) (P11229 whole entry): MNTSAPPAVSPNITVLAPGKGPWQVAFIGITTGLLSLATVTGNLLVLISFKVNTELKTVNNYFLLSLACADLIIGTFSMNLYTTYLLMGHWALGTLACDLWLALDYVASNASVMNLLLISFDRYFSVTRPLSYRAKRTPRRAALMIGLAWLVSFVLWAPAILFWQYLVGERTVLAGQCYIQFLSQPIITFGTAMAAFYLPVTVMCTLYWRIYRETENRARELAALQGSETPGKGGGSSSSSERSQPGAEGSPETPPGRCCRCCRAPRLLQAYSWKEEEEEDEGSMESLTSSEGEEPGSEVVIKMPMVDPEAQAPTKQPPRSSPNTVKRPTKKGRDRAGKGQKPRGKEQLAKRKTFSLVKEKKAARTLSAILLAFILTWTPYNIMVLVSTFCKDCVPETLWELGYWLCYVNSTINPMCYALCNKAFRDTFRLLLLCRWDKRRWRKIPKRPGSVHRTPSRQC

[32] = target: 5-hydroxytryptamine receptor 1A (Rattus norvegicus) (UniProt P19327); experiment: Activity against 5HT1A/R in the Eurofins Panlabs screen (BI) by Radioactive Assay; conditions: Compound concentration 10.0 uM
Sequence of 5-hydroxytryptamine receptor 1A (Rattus norvegicus) (P19327 whole entry): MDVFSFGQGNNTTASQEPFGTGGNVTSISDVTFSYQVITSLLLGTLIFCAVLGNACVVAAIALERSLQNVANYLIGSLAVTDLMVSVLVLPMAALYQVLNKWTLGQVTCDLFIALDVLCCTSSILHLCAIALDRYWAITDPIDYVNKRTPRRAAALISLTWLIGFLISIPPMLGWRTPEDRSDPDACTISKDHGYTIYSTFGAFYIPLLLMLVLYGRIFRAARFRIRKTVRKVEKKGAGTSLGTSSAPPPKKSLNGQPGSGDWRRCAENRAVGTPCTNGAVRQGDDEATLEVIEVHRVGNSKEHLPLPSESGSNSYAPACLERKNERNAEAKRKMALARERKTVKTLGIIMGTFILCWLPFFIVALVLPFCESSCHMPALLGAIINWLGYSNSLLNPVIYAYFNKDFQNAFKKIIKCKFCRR

[33] = target: Calpain-1 catalytic subunit (Homo sapiens) (UniProt P07384); experiment: Inhibitor of CALPAIN in the Eurofins Panlabs screen (BI) by FI - fluorescence intensity; conditions: Compound concentration 10.0 uM
[34] = target: Leukotriene A-4 hydrolase (Cavia porcellus) (UniProt P19602); experiment: Inhibitor of LTA4HYD in the Eurofins Panlabs screen (BI) by Radioactive Assay; conditions: Compound concentration 100.0 uM
Sequence of Leukotriene A-4 hydrolase (Cavia porcellus) (P19602 whole entry): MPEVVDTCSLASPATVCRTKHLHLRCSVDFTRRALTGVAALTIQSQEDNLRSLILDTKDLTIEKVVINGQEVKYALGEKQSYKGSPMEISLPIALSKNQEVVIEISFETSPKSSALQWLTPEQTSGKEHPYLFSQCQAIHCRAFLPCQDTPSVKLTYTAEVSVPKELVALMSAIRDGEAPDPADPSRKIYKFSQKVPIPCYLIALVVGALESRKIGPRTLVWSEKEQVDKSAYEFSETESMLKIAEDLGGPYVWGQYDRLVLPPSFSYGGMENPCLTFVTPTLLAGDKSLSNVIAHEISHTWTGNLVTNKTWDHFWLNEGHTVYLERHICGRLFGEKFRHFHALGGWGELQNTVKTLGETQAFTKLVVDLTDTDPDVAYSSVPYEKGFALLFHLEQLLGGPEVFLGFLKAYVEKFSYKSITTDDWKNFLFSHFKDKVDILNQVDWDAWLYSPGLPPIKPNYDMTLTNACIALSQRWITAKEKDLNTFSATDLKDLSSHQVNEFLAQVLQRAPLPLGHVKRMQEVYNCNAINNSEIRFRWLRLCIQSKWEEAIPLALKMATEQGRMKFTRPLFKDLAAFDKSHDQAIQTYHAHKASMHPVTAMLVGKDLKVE

[35] = target: Endothelin-1 receptor (Rattus norvegicus) (UniProt P26684); experiment: Activity against ETA/R in the Eurofins Panlabs screen (BI) by Radioactive Assay; conditions: Compound concentration 10.0 uM
[36] = target: Endothelin-1 receptor (Homo sapiens) (UniProt P25101); experiment: ETA Eurofins-Cerep binding assay; parameters: ligand concentration 0.03 nM; conditions: Compound concentration 10.0 uM
Sequence of Endothelin-1 receptor (Homo sapiens) (P25101 whole entry): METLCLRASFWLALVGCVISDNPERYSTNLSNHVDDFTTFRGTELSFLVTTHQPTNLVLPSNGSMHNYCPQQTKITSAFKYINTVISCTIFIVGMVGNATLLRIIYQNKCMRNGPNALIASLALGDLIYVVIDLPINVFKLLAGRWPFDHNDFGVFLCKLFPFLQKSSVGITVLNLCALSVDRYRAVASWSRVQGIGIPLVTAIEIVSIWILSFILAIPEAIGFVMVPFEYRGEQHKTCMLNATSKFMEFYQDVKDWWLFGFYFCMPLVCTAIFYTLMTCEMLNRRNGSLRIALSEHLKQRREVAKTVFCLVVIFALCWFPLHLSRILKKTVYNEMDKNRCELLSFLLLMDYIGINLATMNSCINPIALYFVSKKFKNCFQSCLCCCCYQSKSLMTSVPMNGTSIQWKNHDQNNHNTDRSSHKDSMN

[37] = target: Androgen receptor (Homo sapiens) (UniProt P10275); conditions: Compound concentration 10.0 uM
Sequence of Androgen receptor (Homo sapiens) (P10275 whole entry): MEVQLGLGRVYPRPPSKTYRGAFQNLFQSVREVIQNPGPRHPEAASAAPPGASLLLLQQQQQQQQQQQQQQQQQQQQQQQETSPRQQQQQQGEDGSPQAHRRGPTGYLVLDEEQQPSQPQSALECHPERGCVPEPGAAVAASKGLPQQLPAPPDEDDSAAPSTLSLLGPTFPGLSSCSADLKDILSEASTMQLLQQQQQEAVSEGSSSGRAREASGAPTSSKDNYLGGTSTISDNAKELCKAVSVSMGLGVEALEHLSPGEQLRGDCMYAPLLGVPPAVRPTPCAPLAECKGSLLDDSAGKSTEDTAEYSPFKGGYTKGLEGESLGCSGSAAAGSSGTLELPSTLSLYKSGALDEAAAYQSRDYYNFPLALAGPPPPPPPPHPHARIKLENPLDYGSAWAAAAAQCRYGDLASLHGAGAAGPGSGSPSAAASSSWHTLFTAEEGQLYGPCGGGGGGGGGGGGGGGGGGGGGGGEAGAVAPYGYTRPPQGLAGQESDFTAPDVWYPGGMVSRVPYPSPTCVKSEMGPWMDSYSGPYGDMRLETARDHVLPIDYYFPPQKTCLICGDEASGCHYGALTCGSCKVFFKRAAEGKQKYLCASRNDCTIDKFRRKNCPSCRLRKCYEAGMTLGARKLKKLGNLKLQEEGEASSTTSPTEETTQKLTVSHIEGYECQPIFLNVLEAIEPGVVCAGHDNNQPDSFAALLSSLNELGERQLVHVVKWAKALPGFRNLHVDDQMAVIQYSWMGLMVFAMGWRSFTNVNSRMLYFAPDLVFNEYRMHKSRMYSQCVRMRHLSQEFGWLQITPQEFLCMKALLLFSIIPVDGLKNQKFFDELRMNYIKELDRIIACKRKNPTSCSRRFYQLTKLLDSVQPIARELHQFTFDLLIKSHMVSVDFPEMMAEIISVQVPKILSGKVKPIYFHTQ
Description: Activity against ANDROGEN/H in the Eurofins Cerep SafetyScreen44 (BI) by Radioactive Assay (Cerep_933)

Compound: N=C(N)NCCC[C@@H](NC(=O)C(c1ccccc1)c1ccccc1)C(=O)NCc1ccc(CNC(N)=O)cc1
- residual activity [1]: 106%
- residual activity [2]: 98%
- residual activity [3]: 91%
- residual activity [4]: 84%
- residual activity [5]: 110%
- residual activity [6]: 117%
- residual activity [7]: 77%
- residual activity [8]: 79%
- residual activity [9]: 105%
- residual activity [10]: 99%
- residual activity [11]: 56%
- residual activity [12]: 91%
- residual activity [13]: 97%
- residual activity [14]: 97%
- residual activity [15]: 30%
- residual activity [16]: 109%
- residual activity [17]: 85%
- residual activity [18]: 80%
- residual activity [19]: 89%
- residual activity [20]: 102%
- residual activity [21]: 90%
- residual activity [22]: 98%
- residual activity [23]: 66%
- IC50 [24]: > 1000 nM (not active)
- residual activity [25]: 118%
- residual activity [26]: 96%
- residual activity [27]: 60%
- residual activity [28]: 107%
- residual activity [29]: 92%
- residual activity [30]: 100%
- residual activity [31]: 89%
- residual activity [32]: 81%
- residual activity [33]: 108%
- residual activity [34]: 102%
- residual activity [35]: 88%
- residual activity [36]: 112%
- residual activity [37]: 91%
